{"source": "patent US20250101039A1", "about": "“RIFAMYCIN DERIVATIVES FOR THE TREATMENT OF DISEASES” (priority 2022, published 2025)", "key": {"[1]": {"test_system": "S. aureus", "test": "MIC by broth microdilution, S. aureus", "type": "cell-based, Staphylococcus aureus", "settings": "cation adjusted Mueller Hinton broth, 35° C. 20 hours"}, "[2]": {"test_system": "A. baumannii", "test": "MIC by broth microdilution, A. baumannii (WT)", "type": "cell-based, Acinetobacter baumannii", "settings": "for A. baumannii MIC, WT: Table 4, RPMI + FCS"}, "[3]": {"test_system": "Enterococcus faecium (strain NCTC 12204)", "test": "MIC by broth microdilution, E. faecium", "type": "cell-based", "settings": "strain NCTC 12204, cation adjusted Mueller Hinton broth"}, "[4]": {"test_system": "Enterococcus faecalis (strain ATCC 51575)", "test": "MIC by broth microdilution, E. faecalis", "type": "cell-based", "settings": "strain ATCC 51575, cation adjusted Mueller Hinton broth"}, "[5]": {"test_system": "Staphylococcus epidermidis (strain ATCC 12228)", "test": "MIC by broth microdilution, S. epidermidis", "type": "cell-based", "settings": "strain ATCC 12228, cation adjusted Mueller Hinton broth"}, "[6]": {"test_system": "S. pneumoniae (strain ATCC 49619)", "test": "MIC by broth microdilution, S. pneumoniae", "type": "cell-based, Streptococcus pneumoniae", "settings": "strain ATCC 49619, cation adjusted Mueller Hinton broth + 5% laked horse blood"}, "[7]": {"test_system": "S. pyogenes (strain IHMA 1117021)", "test": "MIC by broth microdilution, S. pyogenes", "type": "cell-based, Streptococcus pyogenes", "settings": "strain IHMA 1117021, cation adjusted Mueller Hinton broth + 5% laked horse blood"}, "[8]": {"test_system": "H. influenzae (strain ATCC 49247)", "test": "MIC by broth microdilution, H. influenzae", "type": "cell-based, Hemophilus influenzae", "settings": "strain ATCC 49247, Hemophilus test medium broth"}, "[9]": {"test_system": "M. abscessus (strain ATCC 19977)", "test": "MIC by broth microdilution, M. abscessus", "type": "cell-based, Mycobacterium abscessus", "settings": "strain ATCC 19977, Middlebrook 7H9 broth + ADC"}, "[10]": {"test_system": "M. tuberculosis (H37Rv strain ATCC 27294)", "type": "cell-based, Mycobacterium tuberculosis"}, "[11]": {"test_system": "M. smegmatis (strain ATCC 700084)", "test": "MIC, M. smegmatis (BacTiter-Glo)", "type": "cell-based, Mycobacterium smegmatis", "settings": "strain ATCC 700084, Middlebrook 7H9 + ADC, 90% growth inhibition, 20 hours"}, "[12]": {"test_system": "A. baumannii RpoB H535Q", "test": "microbe, parasite or virus in culture", "type": "cell-based, Acinetobacter baumannii", "settings": "Table 4, RPMI + FCS"}, "[13]": {"test_system": "A. baumannii RpoB H535C", "test": "microbe, parasite or virus in culture", "type": "cell-based, Acinetobacter baumannii", "settings": "Table 4, RPMI + FCS"}, "[14]": {"test_system": "A. baumannii RpoB H535L", "test": "microbe, parasite or virus in culture", "type": "cell-based, Acinetobacter baumannii", "settings": "Table 4, RPMI + FCS"}, "[15]": {"settings": "RPMI medium supplemented with 10% FCS, 35° C. 20 hours"}}, "note": "Read-outs that look alike come from different tables or passages of the source.", "data": [{"smiles": "CO[C@H]1/C=C/O[C@@]2(C)Oc3c(C)c(O)c4c(c3C2=O)C2=NC3(NC2=C(NC(=O)/C(C)=C\\C=C\\[C@H](C)[C@H](O)[C@@H](C)[C@@H](O)[C@@H](C)[C@H](OC(C)=O)[C@@H]1C)C4=O)C1CN2CC3CN(C1)C2", "note": "(stereo partly drawn) [Compound 19]", "values": [{"measurement": "MIC S. aureus", "setting": "[1]", "value": 0.004, "unit": "mg/L"}, {"measurement": "MIC A. baumannii", "setting": "[2]; [15]", "value": 1, "unit": "mg/L"}]}, {"smiles": "COC1C=COC2(C)Oc3c(C)c(O)c4c(c3C2=O)C2=NC3(CC5CCC(C3)N5C3CCCC3)NC2=C(NC(=O)C(C)=CC=CC(C)C(O)C(C)C(O)C(C)C(OC(C)=O)C1C)C4=O", "note": "(mixture of isomers) [15 (A + B)]", "values": [{"measurement": "MIC S. aureus", "setting": "[1]", "value": 0.03, "unit": "mg/L"}, {"measurement": "MIC A. baumannii", "setting": "[2]; [15]", "value": 0.25, "unit": "mg/L"}]}, {"smiles": "CO[C@H]1/C=C/O[C@@]2(C)Oc3c(C)c(O)c4c(c3C2=O)C2=NC3(CC5CCC(C3)N5C(C)C)NC2=C(NC(=O)/C(C)=C\\C=C\\[C@H](C)[C@H](O)[C@@H](C)[C@@H](O)[C@@H](C)[C@H](OC(C)=O)[C@@H]1C)C4=O", "note": "(single isomer, unassigned) [Compound 14B]", "values": [{"measurement": "MIC S. aureus", "setting": "[1]", "value": 0.008, "unit": "mg/L"}, {"measurement": "MIC A. baumannii", "setting": "[2]; [15]", "value": 0.016, "unit": "mg/L"}]}, {"smiles": "CCCN1C2CCC1CC1(C2)N=C2C(=C3NC(=O)/C(C)=C\\C=C\\[C@H](C)[C@H](O)[C@@H](C)[C@@H](O)[C@@H](C)[C@H](OC(C)=O)[C@H](C)[C@@H](OC)/C=C/O[C@@]4(C)Oc5c(C)c(O)c(c2c5C4=O)C3=O)N1", "note": "(single isomer, unassigned) [Compound 20B]", "values": [{"measurement": "MIC S. aureus", "setting": "[1]", "value": 0.004, "unit": "mg/L"}, {"measurement": "MIC A. baumannii", "setting": "[2]; [15]", "value": "< 0.002", "unit": "mg/L"}, {"measurement": "A. baumannii MIC, WT", "setting": "[2]", "value": "≤0.002", "unit": "mg/L"}, {"measurement": "MIC E. faecium", "setting": "[3]", "value": 0.5, "unit": "mg/L"}, {"measurement": "MIC E. faecalis", "setting": "[4]", "value": 1, "unit": "mg/L"}, {"measurement": "MIC S. epidermidis", "setting": "[5]", "value": "< 0.002", "unit": "mg/L"}, {"measurement": "MIC S. pneumoniae", "setting": "[6]", "value": "< 0.002", "unit": "mg/L"}, {"measurement": "MIC S. pyogenes", "setting": "[7]", "value": "< 0.002", "unit": "mg/L"}, {"measurement": "MIC H. influenzae", "setting": "[8]", "value": 0.25, "unit": "mg/L"}, {"measurement": "MIC M. abscessus", "setting": "[9]", "value": 8, "unit": "mg/L"}, {"measurement": "MIC M. tuberculosis", "setting": "[10]", "value": 0.01, "unit": "mg/L"}, {"measurement": "MIC M. smegmatis", "setting": "[11]", "value": 0.29, "unit": "mg/L"}, {"measurement": "A. baumannii MIC, RpoB H535Q", "setting": "[12]", "value": 0.004, "unit": "mg/L"}, {"measurement": "A. baumannii MIC, RpoB H535C", "setting": "[13]", "value": 0.008, "unit": "mg/L"}, {"measurement": "A. baumannii MIC, RpoB H535L", "setting": "[14]", "value": 0.5, "unit": "mg/L"}]}, {"smiles": "CO[C@H]1/C=C/O[C@@]2(C)Oc3c(C)c(O)c4c(c3C2=O)C2=NC3(NC2=C(NC(=O)/C(C)=C\\C=C\\[C@H](C)[C@H](O)[C@@H](C)[C@@H](O)[C@@H](C)[C@H](OC(C)=O)[C@@H]1C)C4=O)C1CC2CC3CN(C2)C1", "note": "(stereo partly drawn) [Compound 3A]", "values": [{"measurement": "MIC S. aureus", "setting": "[1]", "value": 0.008, "unit": "mg/L"}, {"measurement": "MIC A. baumannii", "setting": "[2]", "value": 0.25, "unit": "mg/L"}]}, {"smiles": "CO[C@H]1/C=C/O[C@@]2(C)Oc3c(C)c(O)c4c(c3C2=O)C2=NC3(CC5CCC(C3)N5)NC2=C(NC(=O)/C(C)=C\\C=C\\[C@H](C)[C@H](O)[C@@H](C)[C@@H](O)[C@@H](C)[C@H](OC(C)=O)[C@@H]1C)C4=O", "note": "(single isomer, unassigned) [Compound 12A]", "values": [{"measurement": "MIC S. aureus", "setting": "[1]", "value": 0.06, "unit": "mg/L"}, {"measurement": "MIC A. baumannii", "setting": "[2]; [15]", "value": 0.06, "unit": "mg/L"}]}, {"smiles": "CCCN1CC2CN(CCC)CC(C1)C21N=C2C(=C3NC(=O)/C(C)=C\\C=C\\[C@H](C)[C@H](O)[C@@H](C)[C@@H](O)[C@@H](C)[C@H](OC(C)=O)[C@H](C)[C@@H](OC)/C=C/O[C@@]4(C)Oc5c(C)c(O)c(c2c5C4=O)C3=O)N1", "note": "(stereo partly drawn) [Compound 4]", "values": [{"measurement": "MIC S. aureus", "setting": "[1]", "value": 0.016, "unit": "mg/L"}, {"measurement": "MIC A. baumannii", "setting": "[2]; [15]", "value": 0.03, "unit": "mg/L"}]}, {"smiles": "COC1C=COC2(C)Oc3c(C)c(O)c4c(c3C2=O)C2=NC3(NC2=C(NC(=O)C(C)=CC=CC(C)C(O)C(C)C(O)C(C)C(OC(C)=O)C1C)C4=O)C1CCCC3CNC1", "note": "(mixture of isomers) [16 (A + B)]", "values": [{"measurement": "MIC S. aureus", "setting": "[1]", "value": 0.004, "unit": "mg/L"}, {"measurement": "MIC A. baumannii", "setting": "[2]; [15]", "value": "< 0.002", "unit": "mg/L"}, {"measurement": "A. baumannii MIC, WT", "setting": "[2]", "value": "≤0.002", "unit": "mg/L"}, {"measurement": "MIC E. faecium", "setting": "[3]", "value": 0.125, "unit": "mg/L"}, {"measurement": "MIC E. faecalis", "setting": "[4]", "value": 0.5, "unit": "mg/L"}, {"measurement": "MIC S. epidermidis", "setting": "[5]", "value": "< 0.002", "unit": "mg/L"}, {"measurement": "MIC S. pneumoniae", "setting": "[6]", "value": "< 0.002", "unit": "mg/L"}, {"measurement": "MIC S. pyogenes", "setting": "[7]", "value": "< 0.002", "unit": "mg/L"}, {"measurement": "MIC H. influenzae", "setting": "[8]", "value": 0.06, "unit": "mg/L"}, {"measurement": "MIC M. abscessus", "setting": "[9]", "value": 4, "unit": "mg/L"}, {"measurement": "MIC M. smegmatis", "setting": "[11]", "value": 0.33, "unit": "mg/L"}, {"measurement": "A. baumannii MIC, RpoB H535Q", "setting": "[12]", "value": 0.008, "unit": "mg/L"}, {"measurement": "A. baumannii MIC, RpoB H535C", "setting": "[13]", "value": 0.016, "unit": "mg/L"}, {"measurement": "A. baumannii MIC, RpoB H535L", "setting": "[14]", "value": 1, "unit": "mg/L"}]}, {"smiles": "CO[C@H]1/C=C/O[C@@]2(C)Oc3c(C)c(O)c4c(c3C2=O)C2=NC3(CCCNCC3)NC2=C(NC(=O)/C(C)=C\\C=C\\[C@H](C)[C@H](O)[C@@H](C)[C@@H](O)[C@@H](C)[C@H](OC(C)=O)[C@@H]1C)C4=O", "note": "(single isomer, unassigned) [Compound 6A]", "values": [{"measurement": "MIC S. aureus", "setting": "[1]", "value": 0.016, "unit": "mg/L"}, {"measurement": "MIC A. baumannii", "setting": "[2]; [15]", "value": 0.125, "unit": "mg/L"}]}, {"smiles": "CO[C@H]1/C=C/O[C@@]2(C)Oc3c(C)c(O)c4c(c3C2=O)C2=NC3(CCCN(C)CC3)NC2=C(NC(=O)/C(C)=C\\C=C\\[C@H](C)[C@H](O)[C@@H](C)[C@@H](O)[C@@H](C)[C@H](OC(C)=O)[C@@H]1C)C4=O", "note": "(single isomer, unassigned) [Compound 7B]", "values": [{"measurement": "MIC S. aureus", "setting": "[1]", "value": 0.008, "unit": "mg/L"}, {"measurement": "MIC A. baumannii", "setting": "[2]; [15]", "value": 0.125, "unit": "mg/L"}]}]}
